Test in all cases: DTP human tumour cell line panel, 48 h
For test [1], the system named is HCT-116 colon.
In test [2] the test system is HT29 colon.
The subject of test [3] is RXF 393 renal.
Test [4] relates to CCRF-CEM leukemia.
The subject of test [5] is HOP-62 NSCLC.
For test [6], the system named is NCI-H460 lung.
Test [7] relates to SK-MEL-28 melanoma.
Test [8] relates to HCT-15 colon.
Test [9] concerns MDA-MB-231 breast.
For test [10], the system named is EKVX NSCLC.

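48-hour exposure; five concentrations; linearly interpolated endpoints. TGI is the concentration that stops growth completely.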

With `CC(=O)OC(Cc1ccc2ccccc2n1)(C(F)(F)F)C(F)(F)F`, the TGI in test [1] was found to be 4.24 µM; in test [2], 5.43 µM; in test [3], 2.84 µM; in test [4], 1.95 µM; in test [5], 27.9 µM; in [6], 18.5 µM. The TGI in [7] was found to be 4.03 µM; in [8], 7.46 µM; in test [9], 4.12 µM; in [10], 10.2 µM.

As to `CCCCCc1cc2cc3c(c(O)c2c(=O)[nH]1)C1(CCC3)C(O)=c2c(=O)c3c(=O)cc(OC)c(=O)c=3c(=O)c2=C1O` (stereo not given), the TGI was 2.41 µM in [1]; 3.11 µM in [2]; 1.82 µM in test [3]; more than 18.7 µM in test [4]; 7.67 µM in test [5]; 3.12 µM in test [6]. Further, the TGI in test [7] came out at 3.68 µM; in test [8], 2.33 µM; in test [9] it was 4.28 µM; in [10] it was 2.83 µM.

As for `COC(OC)C1OCC(n2cc(F)c(=O)[nH]c2=O)C1O` (stereo not given), the TGI in test [1], in test [2], in test [3], in test [4], in test [5] and in test [6] was more than 100 µM in each case. The TGI in test [7], in test [8], in test [9] and in test [10] was more than 100 µM throughout.

Consider `COc1cc2cc(C(=O)N3CC(CCl)c4c3cc(NC(=O)OCc3ccc([N+](=O)[O-])cc3)c3ccccc43)[nH]c2c(OC)c1OC` (stereo not given), for which the TGI in test [1] is more than 79.8 µM; in test [2], more than 100 µM; in test [3], more than 100 µM; in [4] it was more than 57.6 µM; in test [5] it was more than 100 µM; in test [6] it was more than 39.1 µM. Moreover, the TGI in test [7] is more than 100 µM; in [8] it was more than 100 µM; in [9] it was more than 81.5 µM; in test [10], more than 100 µM.

Consider `Cc1cn(CCCCCCC2=NCCCN2)c(=O)[nH]c1=O`, for which the TGI in test [1], in test [2], in test [3], in test [4], in test [5] and in [6] was more than 100 µM each time. Also, the TGI in [7], in test [8], in [9] and in [10] was more than 100 µM each time.

As to `COC(=O)CCc1ccc2c(c1)C(=O)CC2`, the TGI in test [1], in test [2], in test [3], in test [4], in test [5] and in test [6] was more than 100 µM each time. The TGI in [7], in test [8], in test [9] and in test [10] was more than 100 µM in each case.

On to `CCOP(=O)(OCC)C(c1ccccc1)N(C(=O)NC(F)(F)F)c1cccc(F)c1` (stereo not given), for which the TGI in test [1], in test [2], in [3], in test [4], in test [5] and in test [6] was more than 100 µM in each case. In addition, the TGI in test [7], in [8], in [9] and in [10] was more than 100 µM each time.

As for `CC1=NN(C(=O)CC(=O)Nc2ccccc2Cl)C(=O)C1N=Nc1ccc(S(=O)(=O)c2ccc(N=NC3C(=O)N(C(=O)CC(=O)Nc4ccccc4Cl)N=C3C)cc2)cc1` (stereo not given), the TGI in [1], in test [2], in test [3], in [4], in [5] and in [6] was more than 100 µM each time. In addition, the TGI in [7], in [8], in test [9] and in test [10] was more than 100 µM each time.

Consider `C/C(=C\c1ccccc1)C(=O)NCc1ccc(C(=O)NCCc2ccccc2)cc1`, for which the TGI in [1] was more than 100 µM; in test [2] it was 6.81 µM; in test [3] it was 41.4 µM; in [4] it was more than 100 µM; in test [5], 10.8 µM; in [6] it was more than 100 µM. The TGI in test [7], in test [8], in [9] and in test [10] was more than 100 µM each time.

As to `O=c1sc2c(s1)-c1sc(=O)sc1SS2`, the TGI was more than 100 µM in [1]; more than 56.9 µM in test [2]; more than 100 µM in test [3]; more than 96 µM in test [4]; more than 100 µM in [5]; more than 100 µM in test [6]. For the same molecule, the TGI is more than 100 µM in [7], more than 31.6 µM in [8], more than 100 µM in [9] and more than 100 µM in test [10].

On to `COc1ccc(/C=C/C(=O)c2cc(C(C)(C)C)c(O)c(C(C)(C)C)c2)cc1OC`, for which the TGI in test [1] is 48.6 µM; in test [2], 60 µM; in test [3], 7.69 µM; in test [4] it was 11.8 µM; in test [5], more than 100 µM; in test [6], 20.2 µM. The TGI in [7] was more than 100 µM; in test [8], more than 100 µM; in test [9] it was 51.6 µM; in test [10] it was more than 100 µM.

Consider `O=c1[nH]c(=O)n(C2CC(O)C(CO)O2)cc1NN=NCCCc1ccccc1` (stereo not given), for which the TGI in test [1], in test [2], in [3], in [4], in test [5] and in test [6] was more than 100 µM each time. Moreover, the TGI in [7], in test [8], in test [9] and in test [10] was more than 100 µM throughout.

Take `CCCCCc1nnc(NS(=O)(=O)c2ccc(NC(=O)OCC(C)C)cc2)s1`: the TGI in test [1] is 53.7 µM; in test [2] it was 46.1 µM; in [3], more than 100 µM; in test [4] it was 77.1 µM; in test [5], more than 100 µM; in [6], more than 100 µM. For the same molecule, the TGI is 95.5 µM in test [7], more than 100 µM in test [8], more than 100 µM in test [9] and 78.2 µM in [10].

For the molecule `CSc1cc(-c2ccccn2)nc(-c2ccccn2)c1`, the TGI in test [1] is 11.7 µM; in test [2], 13 µM; in test [3], 4.47 µM; in [4], more than 100 µM; in test [5], 4.49 µM; in test [6], 1.88 µM. Moreover, the TGI in [7] was 14.8 µM; in [8], 4.11 µM; in [9], 18.1 µM; in [10] it was 12.3 µM.

As to `Cc1ccc(-n2cc(-c3ccc(Cl)cc3)c3c(N/N=C4\SCC(=O)N4C)ncnc32)cc1`, the TGI in test [1] was 38.4 µM; in test [2], more than 100 µM; in test [3], 48.1 µM; in test [4], more than 100 µM; in test [5], 98.8 µM; in test [6], 43.2 µM. Besides, the TGI is 6.23 µM in test [7], more than 100 µM in [8], 23.8 µM in test [9] and more than 100 µM in test [10].

Consider `COC(=O)C1=C(OC(=O)/C=C/c2ccccc2)C(C(=O)OC)[C@@]2(O)[C@@H](C(=O)OC)[C@H](C)C[C@@H]1[C@@H]2C(=O)OC` (stereo not given in full), for which the TGI was 88.4 µM in [1]; more than 100 µM in test [2]; 34.1 µM in test [3]; more than 100 µM in test [4]; 48.2 µM in test [5]; 52.7 µM in test [6]. For the same molecule, the TGI in test [7] was more than 100 µM; in test [8], 37.6 µM; in [9], 43.9 µM; in test [10] it was 65.2 µM.

With `COc1ccc(NC(=O)CC(=O)n2nc(C)c(N=Nc3cccc(C)c3)c2C)cc1`, the TGI in test [1], in test [2], in [3], in test [4], in test [5] and in test [6] was more than 100 µM each time. Moreover, the TGI in test [7], in test [8], in [9] and in [10] was more than 100 µM each time.

On to `COc1cc(O)c2c(=O)c3c(C)cccc3n(C)c2c1`, for which the TGI in test [1], in test [2], in [3], in test [4], in test [5] and in [6] was more than 10 µM throughout. In addition, the TGI in test [7], in test [8], in test [9] and in test [10] was more than 10 µM in each case.

In the case of `CCOC(=O)C[n+]1cccc(C2(c3cc4ccccc4[nH]3)OCCO2)c1`, the TGI in [1], in test [2], in test [3], in test [4], in test [5] and in test [6] was more than 100 µM throughout. For the same molecule, the TGI in test [7], in test [8], in test [9] and in test [10] was more than 100 µM each time.

On to `C(=N\Nc1ccc(-c2nc3ccccc3[nH]2)cc1)/c1c(-c2ccc(Cc3ccccc3)cc2)[nH]c2ccccc12`, for which the TGI is more than 68.4 µM in test [1]; more than 57.9 µM in test [2]; 14.5 µM in test [3]; more than 100 µM in [4]; more than 100 µM in [5]; more than 100 µM in [6]. Besides, the TGI was more than 100 µM in test [7], more than 100 µM in [8], 60.6 µM in test [9] and more than 100 µM in [10].

For `C=C1C(=O)O[C@H]2[C@H]3O[C@@H](C[C@@H]12)[C@@]1(C)CC[C@H](O1)[C@H](C)CCC[C@H]3C`, the TGI turned out to be 2.49 µM in [1]; 3.04 µM in test [2]; 5.24 µM in [3]; 2.99 µM in [4]; 16.3 µM in test [5]; 3.7 µM in test [6]. Further, the TGI turned out to be 3.1 µM in test [7], 3.55 µM in test [8], 3.12 µM in [9] and 2.84 µM in test [10].

For the molecule `CC(=O)OCc1cncn1S(=O)(=O)c1ccc(C)cc1`, the TGI in [1] was more than 100 µM; in test [2] it was more than 100 µM; in [3], more than 100 µM; in [4], more than 100 µM; in [5], more than 100 µM; in [6], more than 65.5 µM. Also, the TGI in [7], in [8], in test [9] and in [10] was more than 100 µM in each case.

For `COc1ccc(/C=C2\CCS(=O)(=O)c3ccccc3C2=O)cc1OC`, the TGI is more than 100 µM in test [1]; more than 100 µM in test [2]; more than 100 µM in test [3]; more than 100 µM in [4]; more than 100 µM in test [5]; 47 µM in [6]. Besides, the TGI in test [7] is more than 100 µM; in test [8], 50.4 µM; in test [9], more than 100 µM; in [10], more than 100 µM.

`c1ccc(CN[C@]23C4C5CC6C7C5C2C7[C@@](NCc2ccccc2)(C64)N3Cc2ccccc2)cc1` (stereo not given in full): the TGI in test [1], in [2], in test [3], in test [4], in test [5] and in [6] was more than 100 µM in each case. The TGI in test [7], in test [8], in test [9] and in test [10] was more than 100 µM throughout.

Usually TGI stands for the concentration giving total growth inhibition. Lower therefore signals greater sensitivity of the cells.

The values above are taken from PubChem BioAssay (NCI).
